Source: patent US5334728A (The Trustees of The University of Pennsylvania, priority 1992, dated 1994)
“And” between values parts separate entries of the source, which are not always exact repeats. Equal values may be shown once.

Columns and labels:
[1] = Biodistribution in rats after IV injection; assay type: in vivo, rat
Experimental: Male Sprague Dawley rats (225-300 g), which were allowed free access to food and water, were used for in vivo biodistribution study. While under halothane anesthesia, 0.2 ml of a saline solution containing [^125 l]IBF, 21, (8-10 μCi) was injected directly into the femoral vein, and the rats were sacrificed at various time points postinjection by cardiac excision under halothane anesthesia. The organs of interest were removed, weighed and the radioactivity was counted using a Beckman gamma automatic counter (Model 4000). The percent dose per organ was calculated by a comparison of the tissue counts to suitably diluted aliquots of the injected material. Total activities of blood and muscle were calculated assuming that they are 7% and 40% of total body weight, respectively.

[2] = test system: CNS D-2 dopamine receptors; test: Ex vivo autoradiography (preliminary); assay type: in vivo; conditions: preliminary study
Excerpt: (§1) (See FIG. 2). This type of profound increase in target to nontarget ratio versus time was not observed for the other two regions (hippocampus and cortex) (FIG. 2). […] The data have been further confirmed by an in vivo imaging study of a monkey.

[3] = target: T1, dopamine D-2 receptor (Rattus norvegicus, UniProt P61169); test: Saturation binding of [^125 I]IBF to rat striatal homogenate in vitro
T1 construct: Striatal tissues were excised, pooled and homogenized in 100 volumes (w/v) of ice-cold Tris-HCl buffer; from tissue; host or cells: rat striatum (male Sprague-Dawley), twice-centrifuged membrane homogenate
T1 sequence (P61169 whole entry): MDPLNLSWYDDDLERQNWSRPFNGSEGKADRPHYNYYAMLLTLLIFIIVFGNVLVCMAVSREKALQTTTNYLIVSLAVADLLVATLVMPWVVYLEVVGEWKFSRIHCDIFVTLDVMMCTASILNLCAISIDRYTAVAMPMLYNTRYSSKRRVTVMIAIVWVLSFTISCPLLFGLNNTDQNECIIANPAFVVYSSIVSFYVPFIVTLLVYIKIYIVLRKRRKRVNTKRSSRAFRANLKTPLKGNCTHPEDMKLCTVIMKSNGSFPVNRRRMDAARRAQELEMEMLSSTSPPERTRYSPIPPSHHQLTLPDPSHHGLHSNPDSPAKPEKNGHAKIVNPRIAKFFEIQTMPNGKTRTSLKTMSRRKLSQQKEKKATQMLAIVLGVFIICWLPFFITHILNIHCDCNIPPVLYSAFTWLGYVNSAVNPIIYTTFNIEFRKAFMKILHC
Experimental: (§2) Male Sprague-Dawley rats (200-250 g) were decapitated, and the brains were removed and placed in ice. Striatal tissues were excised, pooled and homogenized in 100 volumes (w/v) of ice-cold Tris-HCl buffer (50 mM), pH 7.4. The homogenates were centrifuged at 20,000× g for 20 min. The resultant pellets were rehomogenized in the same buffer and centrifuged again. The final pellets were resuspended in assay buffer containing: 50 mM Tris buffer pH 7.4, 120 mM NaCl, 5 mM KCl, 2 mM CaCl2 and 1 mM MgCl2 and kept at -20° C. for the following binding assay.
(§3) The binding assays were performed by incubating 50 μl of tissue preparations containing 40-60 μg of protein with appropriate amounts of l-125 labeled ligand and competitors in a total volume of 0.2 ml of the assay buffer. After an incubation period of 15 min at 37° C. (with stirring), the samples were rapidly filtered in the cell harvester (Brandel M-24R) under vacuum through Whatman GF/B glass fiber filters pretreated with 0.2% protamine base and washed with 3×5 ml of cold (4° C.) 50 mM Tris-HCl buffer, pH 7.4. […] The filters were counted in a gamma counter (Beckman 5500) at an efficiency of 70%.

[4] = target: T1, dopamine D-2 receptor; test: Competition binding using [^125 I]IBF, rat striatal membranes
Experimental: *0.15-0.30 nM [^125 I]IBF was incubated in the presence of the
indicated compounds in 7-11 concentrations and of membrane preparation
from rat striatum. Each value represents the mean ± SEM of three to
as §2, §3

[5] = test system: CNS D-2 dopamine receptors; test: Regional brain distribution in rats after iv injection; assay type: in vivo; conditions: rat; for striatum/cerebellum (ST/CB) ratio: % dose/gram ratio
Excerpt: FIG. 2 is a bar graph showing ratios (based on % dose/gram) of regional cerebral uptake of [^125 I]IBF (CX: cortex, ST: striatum, CB: cerebellum, HP: hippocampus).
as §1
Regional brain distribution in rats was obtained after an iv injection of [^125 l]IBF, 21. By dissecting, weighing and counting samples from different brain regions (cortex, striatum, hippocampus and cerebellum), % dose/gram of samples was calculated by comparing the sample counts with the counts of the diluted initial dose. The uptake ratio of each region was obtained by dividing % dose/gram of each region with that ot the cerebellum.

[6] = test system: CNS D-2 dopamine receptors; test: In vivo planar imaging of a monkey; conditions: planar images
Excerpt: as §1

[7] = 2 min, IV, average of 3 rats ± SD
[8] = 15 min, IV, average of 3 rats ± SD
[9] = 30 min, IV, average of 3 rats ± SD
[10] = 60 min, IV, average of 3 rats ± SD
[11] = 120 min, IV, average of 3 rats ± SD

Blood uptake [1, 7]: 3.50 ± 0.22 % Dose/Organ
Brain/Blood ratio [1, 7]: 2.64 ± 0.32 % dose/gram ratio
Heart uptake [1, 7]: 0.81 ± 0.25 % Dose/Organ
Kidney uptake [1, 7]: 7.58 ± 0.66 % Dose/Organ
Liver uptake [1, 7]: 16.32 ± 4.00 % Dose/Organ
Muscle uptake [1, 7]: 11.25 ± 2.62 % Dose/Organ
Skin uptake [1, 7]: 8.54 ± 1.21 % Dose/Organ
Spleen uptake [1, 7]: 0.96 ± 0.08 % Dose/Organ
Thyroid uptake [1, 7]: 0.06 ± 0.02 % Dose/Organ
Blood uptake [1, 8]: 1.80 ± 0.31 % Dose/Organ
Brain uptake [1, 8]: 0.54 ± 0.06 % Dose/Organ
Brain/Blood ratio [1, 8]: 3.01 ± 0.91 % dose/gram ratio
Heart uptake [1, 8]: 0.20 ± 0.03 % Dose/Organ
Kidney uptake [1, 8]: 2.92 ± 0.30 % Dose/Organ
Liver uptake [1, 8]: 16.16 ± 7.54 % Dose/Organ
Lung uptake [1, 8]: 1.85 ± 0.33 % Dose/Organ
Muscle uptake [1, 8]: 14.36 ± 1.29 % Dose/Organ
Skin uptake [1, 8]: 8.46 ± 0.56 % Dose/Organ
Spleen uptake [1, 8]: 0.58 ± 0.08 % Dose/Organ
Thyroid uptake [1, 8]: 0.03 ± 0.004 % Dose/Organ
Blood uptake [1, 9]: 1.26 ± 0.10 % Dose/Organ
Brain uptake [1, 9]: 0.30 ± 0.05 % Dose/Organ
Brain/Blood ratio [1, 9]: 2.26 ± 0.33 % dose/gram ratio
Heart uptake [1, 9]: 0.11 ± 0.01 % Dose/Organ
Kidney uptake [1, 9]: 1.58 ± 0.46 % Dose/Organ
Liver uptake [1, 9]: 11.59 ± 0.93 % Dose/Organ
Muscle uptake [1, 9]: 9.00 ± 1.66 % Dose/Organ
Skin uptake [1, 9]: 5.34 ± 0.17 % Dose/Organ
Spleen uptake [1, 9]: 0.31 ± 0.03 % Dose/Organ
Thyroid uptake [1, 9]: 0.02 ± 0.004 % Dose/Organ
Blood uptake [1, 10]: 0.98 ± 0.11 % Dose/Organ
Brain/Blood ratio [1, 10]: 1.90 ± 0.29 % dose/gram ratio
Heart uptake [1, 10]: 0.05 ± 0.002 % Dose/Organ
Kidney uptake [1, 10]: 1.01 ± 0.01 % Dose/Organ
Liver uptake [1, 10]: 9.84 ± 1.50 % Dose/Organ
Lung uptake [1, 10]: 0.37 ± 0.10 % Dose/Organ
Muscle uptake [1, 10]: 4.97 ± 0.56 % Dose/Organ
Skin uptake [1, 10]: 2.38 ± 0.17 % Dose/Organ
Spleen uptake [1, 10]: 0.09 ± 0.01 % Dose/Organ
Blood uptake [1, 11]: 0.53 ± 0.02 % Dose/Organ
Brain uptake [1, 11]: 0.07 ± 0.006 % Dose/Organ
Brain/Blood ratio [1, 11]: 1.53 ± 0.12 % dose/gram ratio
Heart uptake [1, 11]: 0.02 ± 0.001 % Dose/Organ
Kidney uptake [1, 11]: 0.68 ± 0.32 % Dose/Organ
Liver uptake [1, 11]: 3.95 ± 0.31 % Dose/Organ
Muscle uptake [1, 11]: 2.30 ± 0.22 % Dose/Organ
Skin uptake [1, 11]: 1.18 ± 0.18 % Dose/Organ
Spleen uptake [1, 11]: 0.03 ± 0.007 % Dose/Organ
Thyroid uptake [1, 11]: 0.08 ± 0.03 % Dose/Organ
in vivo deiodination ([1]; from thyroid uptake at one hour postinjection): little or no in vivo deiodination
in vivo stability compared with [^125 I]IBZM ([1]; rat, in vivo): better in vivo stability
lung clearance ([1]; rats): rapidly cleared
Brain uptake ([1]; rats, intravenous): good brain uptake in rats
specific binding saturability [3]: saturable
Kd ([3]; rat striatal homogenate in vitro, read-out: Kd, specific binding): 106 ± 15 pM
nonspecific binding ([3]; saturation curve, FIG. 1): extremely low nonspecific binding
nonspecific binding at Kd ([3]; saturation curve, FIG. 1): 5%
striatum/cerebellum (ST/CB) ratio ([5]; 2 min): 2.0
striatum/cerebellum (ST/CB) ratio ([5]; 15 min): 3.8
striatum/cerebellum (ST/CB) ratio ([5]; 30 min): 6.2
striatum/cerebellum (ST/CB) ratio ([5]; 60 min): 18
striatum/cerebellum (ST/CB) ratio ([5]; 120 min): 48
increase in target to nontarget ratio versus time, hippocampus and cortex ([5]; hippocampus and cortex): not observed
retention in the striatum [5]: prolonged retention
Structure (SMILES): CCN1CCC[C@H]1CNC(=O)c1cc([125I])cc2c1OCC2 [[^125 I]IBF]
Brain uptake [1, 7]: 0.98 ± 0.15 % Dose/Organ and 0.98 % Dose/Organ
Lung uptake [1, 7]: 6.14 ± 1.19 % Dose/Organ and 6.14 % Dose/Organ
Lung uptake [1, 9]: 0.82 ± 0.08 % Dose/Organ and 0.82 % Dose/Organ
Brain uptake [1, 10]: 0.17 ± 0.02 % Dose/Organ and 0.17 % Dose/Organ
Thyroid uptake [1, 10]: 0.02 ± 0.01 % Dose/Organ and 0.02 % Dose/Organ
Liver uptake ([1]; rats, first hour to two hours postinjection): remained high throughout the first hour and gradually declined at two hours postinjection
striatal uptake and cerebellar activity [2]: high striatal uptake and low cerebellar activity
selectivity of binding to the dopamine D-2 receptor [4]: binds specifically and selectively to the dopamine D-2 receptor
uptake and retention in the basal ganglia [6]: high uptake and retention in the basal ganglia
